Assay results published in patent US9255295B2, “Method for evaluating the sensitizing potential of a test compound” (IMMUNOSEARCH, priority 2010, dated 2016).

Assays:
[1] = system: genes specific for sensitization (BRAK, CTSS, DAPK2, FABP4, HSP27, IL18, HSP90, IL1R2, TPSAB1, CXCR1, DEFB1, DHFR, EHF, IVL, KRT4, MELANA, NGAL, PDZK1IP1, PI3 …); experiment: Expression of the other (non-ARE) sensitization-specific genes in EPISKIN reconstructed skin (quantitative RT-PCR); type: cell-based, human
[2] = official classification: non-sensitizer, irritant, or sensitizing Extreme/Strong/Moderate/Weak; cited from earlier work
EPISKIN model = experiment: Sensitizing power: sensitizing potential retested at successive dilutions in the EPISKIN model

Oc1ccc(O)cc1 [Hydroquinone]
CTSS expression compared to control ([1]; 10%): 0.8 | CTSS grade (NUMBER OF GENES) ([1]; 10%): 0 (if this expression is lower, the grade is 0) | CXCR1 expression compared to control ([1]; 10%): 2.2 | CXCR1 grade (NUMBER OF GENES) ([1]; 10%): 1 (If the expression is greater than 1.3 compared to the control, a grade of 11s given) | DAPK2 expression compared to control ([1]; 10%): 1.2 | DAPK2 grade (NUMBER OF GENES) ([1]; 10%): 0 (if this expression is lower, the grade is 0) | DEFB1 expression compared to control ([1]; 10%): 1.5 | DEFB1 grade (NUMBER OF GENES) ([1]; 10%): 1 (If the expression is greater than 1.3 compared to the control, a grade of 11s given) | DHFR expression compared to control ([1]; 10%): 0.7 | DHFR grade (NUMBER OF GENES) ([1]; 10%): 0 (if this expression is lower, the grade is 0) | EHF expression compared to control ([1]; 10%): 1.2 | EHF grade (NUMBER OF GENES) ([1]; 10%): 0 (if this expression is lower, the grade is 0) | FABP4 expression compared to control ([1]; 10%): 1.2 | FABP4 grade (NUMBER OF GENES) ([1]; 10%): 0 (if this expression is lower, the grade is 0) | HSP27 expression compared to control ([1]; 10%): 1.0 | HSP27 grade (NUMBER OF GENES) ([1]; 10%): 0 (if this expression is lower, the grade is 0) | HSP90 expression compared to control ([1]; 10%): 1.2 | HSP90 grade (NUMBER OF GENES) ([1]; 10%): 0 (if this expression is lower, the grade is 0) | IL18 expression compared to control ([1]; 10%): 0.9 | IL18 grade (NUMBER OF GENES) ([1]; 10%): 0 (if this expression is lower, the grade is 0) | IVL expression compared to control ([1]; 10%): 1.8 | IVL grade (NUMBER OF GENES) ([1]; 10%): 1 (If the expression is greater than 1.3 compared to the control, a grade of 11s given) | KRT4 expression compared to control ([1]; 10%): 1.2 | KRT4 grade (NUMBER OF GENES) ([1]; 10%): 0 (if this expression is lower, the grade is 0) | MELANA expression compared to control ([1]; 10%): 0.9 | MELANA grade (NUMBER OF GENES) ([1]; 10%): 0 (if this expression is lower, the grade is 0) | NGAL expression compared to control ([1]; 10%): 2.0 | NGAL grade (NUMBER OF GENES) ([1]; 10%): 1 (If the expression is greater than 1.3 compared to the control, a grade of 11s given) | P13 expression compared to control ([1]; 10%): 1.4 | P13 grade (NUMBER OF GENES) ([1]; 10%): 0 (if this expression is lower, the grade is 0) | PDZK1iP1 expression compared to control ([1]; 10%): 1.0 | PDZK1iP1 grade (NUMBER OF GENES) ([1]; 10%): 0 (if this expression is lower, the grade is 0) | SENS >1.3 (NUMBER OF GENES) ([1]; 10%): 4 | SERPINB3 expression compared to control ([1]; 10%): 1.1 | SERPINB3 grade (NUMBER OF GENES) ([1]; 10%): 0 (if this expression is lower, the grade is 0) | TOTAL SENS (NUMBER OF GENES) ([1]; 10%): 4 | BRAK expression compared to control ([1]; 50%): 0.8 | BRAK grade (NUMBER OF GENES) ([1]; 50%): 0 (if this expression is lower, the grade is 0) | CTSS expression compared to control ([1]; 50%): 1.6 | CTSS grade (NUMBER OF GENES) ([1]; 50%): 1 (If the expression is greater than 1.3 compared to the control, a grade of 11s given) | CXCR1 expression compared to control ([1]; 50%): 2.9 | CXCR1 grade (NUMBER OF GENES) ([1]; 50%): 1 (If the expression is greater than 1.3 compared to the control, a grade of 11s given) | DAPK2 expression compared to control ([1]; 50%): 1.0 | DAPK2 grade (NUMBER OF GENES) ([1]; 50%): 0 (if this expression is lower, the grade is 0) | DEFB1 expression compared to control ([1]; 50%): 2.0 | DEFB1 grade (NUMBER OF GENES) ([1]; 50%): 1 (If the expression is greater than 1.3 compared to the control, a grade of 11s given) | DHFR expression compared to control ([1]; 50%): 1.1 | DHFR grade (NUMBER OF GENES) ([1]; 50%): 0 (if this expression is lower, the grade is 0) | EHF expression compared to control ([1]; 50%): 1.5 | EHF grade (NUMBER OF GENES) ([1]; 50%): 1 (If the expression is greater than 1.3 compared to the control, a grade of 11s given) | FABP4 expression compared to control ([1]; 50%): 1.4 | FABP4 grade (NUMBER OF GENES) ([1]; 50%): 1 (If the expression is greater than 1.3 compared to the control, a grade of 11s given) | HSP27 expression compared to control ([1]; 50%): 1.3 | HSP27 grade (NUMBER OF GENES) ([1]; 50%): 0 (if this expression is lower, the grade is 0) | HSP90 expression compared to control ([1]; 50%): 1.8 | HSP90 grade (NUMBER OF GENES) ([1]; 50%): 1 (If the expression is greater than 1.3 compared to the control, a grade of 11s given) | IL18 expression compared to control ([1]; 50%): 0.9 | IL18 grade (NUMBER OF GENES) ([1]; 50%): 0 (if this expression is lower, the grade is 0) | IVL expression compared to control ([1]; 50%): 2.6 | IVL grade (NUMBER OF GENES) ([1]; 50%): 1 (If the expression is greater than 1.3 compared to the control, a grade of 11s given) | KRT4 expression compared to control ([1]; 50%): 1.1 | KRT4 grade (NUMBER OF GENES) ([1]; 50%): 0 (if this expression is lower, the grade is 0) | MELANA expression compared to control ([1]; 50%): 1.6 | MELANA grade (NUMBER OF GENES) ([1]; 50%): 1 (If the expression is greater than 1.3 compared to the control, a grade of 11s given) | NGAL expression compared to control ([1]; 50%): 1.3 | NGAL grade (NUMBER OF GENES) ([1]; 50%): 0 (if this expression is lower, the grade is 0) | P13 expression compared to control ([1]; 50%): 1.7 | P13 grade (NUMBER OF GENES) ([1]; 50%): 1 (If the expression is greater than 1.3 compared to the control, a grade of 11s given) | PDZK1iP1 expression compared to control ([1]; 50%): 1.0 | PDZK1iP1 grade (NUMBER OF GENES) ([1]; 50%): 0 (if this expression is lower, the grade is 0) | SENS >1.3 (NUMBER OF GENES) ([1]; 50%): 11 | SERPINB3 expression compared to control ([1]; 50%): 1.1 | SERPINB3 grade (NUMBER OF GENES) ([1]; 50%): 0 (if this expression is lower, the grade is 0) | TOTAL SENS (NUMBER OF GENES) ([1]; 50%): 11 | Class [2]: S | sensitizing potential (Sensitizing / Non-sensitizing) (EPISKIN model; 1%): Sensitizing | sensitizing potential (Sensitizing / Non-sensitizing) (EPISKIN model; 10%): Sensitizing | sensitizing potential (Sensitizing / Non-sensitizing) (EPISKIN model; 50%): Sensitizing | sensitizing power (class) (EPISKIN model; from successive dilutions 50%, 10%, 1%, 0.1%): STRONG
